Results on six molecules are retold here after US11034725B2, “Compositions and methods for treating cardiovascular disease” (Genentech, Inc., priority 2016, dated 2021).

In experiment [1] the target is T1, PCSK9 (Homo sapiens, UniProt Q8NBP7). The experiment in a line: PCSK9/LDLR-Fc TR-FRET assay (LDLR assay). As to conditions: Table 11, LDLR-Fc, average ±S.D. of three experiments. The class given is binding. The protocol: In black 1536-well assay plates (MaKO, Aurora® Microplates, Whitefish, Mont.), 40 nL of peptide in DMSO were preincubated with 2 μL His-tagged PCSK9 plus anti-His-allophycocyanin in assay buffer (50 mM Tris-HCl, pH 7.5, 150 mM NaCl, 2 mM CaCl2, 0.01% Tween®-20, 0.1% bovine gamma globulins, and protease inhibitor cocktail) for 30 min. Then 2 μL of Fc-tagged ligand and anti-Fc-europium in assay buffer were added and allowed to incubate for 2 h. The PCSK9 and ligand conditions for each assay are as follows: 10 nM C-terminal (His)8-tagged PCSK9 (“(His)8” disclosed as SEQ ID NO: 304) and 12 nM EGF(A)-Fc for the EGF(A) assay, 10 nM C-terminal (His)8-tagged PCSK9 (“(His)8” disclosed as SEQ ID NO: 304) and 2.5 nM LDLR-Fc for the LDLR assay, 1.25 nM C-terminal (His)8-tagged PCSK9Δhelix (“(His)8” disclosed as SEQ ID NO: 304) and 0.75 nM Ab20 for the Ab20 assay, and 2 nM His-EGF(A)-Fc alone for the counterscreen. In all assays, anti-His-allophycocyanin and anti-Fc-europium were used at 20 nM and 2 nM, respectively. Fluorescence was measured with excitation at 340 nm and emission at 671 nm and 618 nm. The TR-FRET ratio was calculated as fluorescence at 671 nm/fluorescence at 618 nm. The ratios were normalized to controls and plotted against peptide concentration to determine IC50 values (Screener Analyzer, Genedata, Basel, CH). The peptides were evaluated in three separate experiments per assay with 10-point titrations and n=2 per concentration. The values presented are the average ±S.D. of three independent experiments.

Experiment [2] has as its target T2, PCSK9Δhelix (Homo sapiens, UniProt Q8NBP7).
T2 construct: Human PCSK9 construct M1-Q692 with an engineered TEV site (residue deletion Y166, R167); made in house; host or cells: CHO
Put plainly: PCSK9Δhelix/Ab20 TR-FRET binding assay. For orientation: TR-FRET usually uses a lanthanide donor and a delayed reading to cut background.

The target in experiment [3] is T2, PCSK9Δhelix. The experiment in a line: SPR affinity measurements of peptide binding (Example 8). Here is the method: A Biacore™ T100 or Biacore™ 8K was adjusted to 20° C. The system was primed into assay buffer which consisted of 25 mM HEPES, pH 7.5, 0.15 M NaCl, 0.005% (v/v) Tween® 20, 0.2 mM tris(2-carboxyethyl)phosphine and optionally contained 0.1% (w/v) carboxymethylated dextran (average MW 10 kDa) and 0.2% (w/v) PEG (average MW 3450 Da) in order to reduce potential non-specific binding. Peptides were assayed by capturing fresh PCSK9 or PCSK9Δhelix after each binding regeneration cycle by exploiting a histidine tag and an NTA-sensor chip. The surface was charged with (His)8-tagged PCSK9 (approximately 800 RU captured). […] Compound 19 and Compound 20 were assayed in six serial two-fold dilutions from 100 nM to 3.1 nM. All peptides were analyzed in duplicate by serial injection (50 μL/min for 1 min) of peptide dilution from low to high concentration. The surface was then stripped of target by injecting 0.5 M EDTA, pH 8.0. This sequence was repeated for each peptide binding cycle and blank control cycles.
All SPR data was recorded in duplicate for five, or more serial dilutions, except for the two fusion peptides, which produced extremely low fitting error. Multicycle data (i.e. separate curves for each concentration) and single cycle data (i.e. single curve with serial injection of each concentration) were double referenced and fitted to an interaction model using BIAevaluation software. Peptide binding to PCSK9 produced deviations from a simple 1:1 binding interaction model that required application of a two-state model for determination of Kd while interactions with PCSK9Δhelix conformed well to simple 1:1 binding. Kinetic curvature was poorly defined for rapidly dissociating peptides and in these cases Kd was estimated from a steady-state dose response plot. Kd values were reported with associated standard error, a measure of confidence in that parameter value.

The target in experiment [4] is T1, PCSK9. The experiment in a line: PCSK9/EGF(A) TR-FRET binding assay.
A further experiment has as its system His-EGF(A)-Fc. Put plainly: His-EGF(A)-Fc TR-FRET counterscreen. The following applies: TR-FRET counterscreen; Table 8E, additional compounds.
In experiment [5] the target is T1, PCSK9. The experiment in a line: Phage competition ELISA. The format is binding. Here is the method: The sequences of selected clones were fused to the N-terminus of M13 major coat protein (p8) using Kunkel mutagenesis method (Kunkel et al., Methods Enzymol 154, 367-82). The resulting construct was transformed to E. Coli. XL1 blue, single colony was grown in 1 mL 2YT supplemented with 50 μg/mL carbenicillin, 10 μg/mL Tetracycline and M13 KO7 helper phage at 37° C. for 2 h, Kanamycin was added to final concentration of 25 μg/mL, growth was continued at 37° C. for 6 h. The culture was transferred to 30 mL 2YT supplemented with 50 μg/mL carbenicillin and 25 μg/mL kanamycin and grown at 37° C. overnight. The next day, the phage was harvested and purified using the standard protocol (Tonikian et al. Nat Protoc. 2007; 2(6):1368-86). The serially diluted phage solution was applied to the biotinylated PCSK9 and biotinylated PCSK9Δhelix that had been immobilized for 15 min on a 384-well MaxiSorp ImmunoPlate previously coated with 5 μg/mL NeutrAvidin and blocked with Block buffer. The plate was incubated at 4° C. for 1 h, washed 10 times with PT buffer (PBS, 0.05% Tween® 20). The bound phage was detected with anti-M13-HRP and the ELISA signal was read at OD450 nm. The background was ELISA signal that the phage directly bound to NeutrAvidin-coated plate. The data was plotted and the curve fitted with KaleidaGraph. Sub-saturating phage concentration that gave 80% of maximum binding signal was determined by the binding curve.
IC50 measurements were performed by mixing a fixed sub-saturating concentration of peptide-displaying phage with a serial dilution of synthetic peptides in PBT buffer. The mixture was added to plates coated with PCSK9 and PCSK9Δhelix and incubated for 1 h at room temperature. The plates were then washed 10 times with PBT buffer and the bound phage was detected by anti-M13-HRP. The data was plotted, curve fitted and IC50 derived by use of KaleidaGraph. All measurements were repeated 3 times independently.

Where [6] appears, read: TR-FRET, Table 8E, additional compounds, read-out: PCSK9Δhelix/Ab20 IC50.
The mark [7] stands for this setting: Table 11, average ±S.D. of three experiments, read-out: Ab20 IC50.
The mark [8] stands for this setting: TR-FRET, Table 8E, additional compounds, read-out: PCSK9/EGF(A) IC50.
The mark [9] stands for this setting: Table 11, average ±S.D. of three experiments, read-out: EGF(A) IC50.

Read-outs that look alike come from different tables or passages of the source. Bridge positions count the residues as written; N and C are the ends. Square brackets hold non-standard residues; d marks the D form. Peptide text beside a SMILES is read from it. hArg = N=C(N)NCCCC[C@H](N)C(=O)O

The term Kd denotes a measure of binding affinity in units of concentration. The low end stands for tighter binding, the high end for weaker binding. For `CC[C@H](C)[C@H](NC(=O)[C@H](CCCCNC(=N)N)NC(=O)[C@@H](NC(=O)[C@H](CC(C)C)NC(=O)[C@H](CC(N)=O)NC(=O)[C@H](Cc1c[nH]c2ccccc12)NC(C)=O)C(C)C)C(=O)NCC(=O)N[C@@H](CC(C)C)C(=O)N[C@@H](CC(C)C)C(=O)N[C@@H](CCCNC(=N)N)C(N)=O` [Compound 192, Ac-WNLV(homoR)IGLLR-NH2] (Ac-WNLV[hArg]IGLLR-NH2), the IC50 was more than 50 µM against PCSK9 [1]; 5.3 µM on PCSK9Δhelix [2] (setting [6]); 5.55 ± 0.36 µM at PCSK9Δhelix [2] (setting [7]); not below 50 µM on PCSK9 [4] (setting [8]); more than 50 µM at PCSK9 [4] (setting [9]); not below 50 µM in the experiment on His-EGF(A)-Fc. For the same molecule, the affinity at PCSK9Δhelix [3] (Table 10, binding to PCSK9Δhelix), expressed as Kd, was 1 µM. Further, the “improvement of binding affinity by homo-arginine substitution” value on PCSK9Δhelix [3] (Table 10, versus Compound 53) was found to be 14 fold.

As for `CC[C@H](C)[C@H](NC(=O)[C@H](CCCCNC(=N)N)NC(=O)[C@@H](NC(=O)[C@H](CC(C)C)NC(=O)[C@H](CC(N)=O)NC(=O)[C@H](Cc1c[nH]c2ccccc12)NC(=O)CNC(=O)[C@@H]1CCCN1C(=O)[C@H](Cc1ccccc1)NC(=O)[C@H](CO)NC(=O)[C@H](CCC(=O)O)NC(C)=O)C(C)C)C(=O)NCC(=O)N[C@@H](CC(C)C)C(=O)N[C@@H](CC(C)C)C(=O)N[C@@H](CCCNC(=N)N)C(N)=O` [Compound 227] (Ac-ESFPGWNLV[hArg]IGLLR-NH2), the IC50 against PCSK9 [1] is more than 50 µM; on PCSK9Δhelix [2] (setting [6]) it was 24 µM; at PCSK9Δhelix [2] (setting [7]), 2.51 ± 0.11 µM; at PCSK9 [4] (setting [8]) it was 2.5 µM; at PCSK9 [4] (setting [9]), 23.2 ± 0.3 µM; in the experiment on His-EGF(A)-Fc, not below 50 µM. In addition, the “lower inhibitory activity versus Compound 229” value at PCSK9 [4] (Table 11) is listed as “approximately 3 fold”.

With `CC[C@H](C)[C@H](NC(=O)[C@H](CCCCNC(=N)N)NC(=O)[C@@H](NC(=O)[C@H](CC(C)C)NC(=O)[C@H](CC(N)=O)NC(=O)[C@H](Cc1c[nH]c2ccccc12)NC(=O)CNC(=O)[C@@H]1CCCN1C(=O)[C@H](Cc1ccc(O)cc1)NC(=O)[C@H](CO)NC(=O)[C@H](CC(=O)O)NC(C)=O)C(C)C)C(=O)NCC(=O)N[C@@H](CC(C)C)C(=O)N[C@@H](CC(C)C)C(=O)N[C@@H](CCCNC(=N)N)C(N)=O` [Compound 230] (Ac-DSYPGWNLV[hArg]IGLLR-NH2), the IC50 on PCSK9 [1] is more than 50 µM; on PCSK9Δhelix [2] (setting [6]), 24 µM; at PCSK9Δhelix [2] (setting [7]) it was 2.42 ± 0.2 µM; at PCSK9 [4] (setting [8]) it was 2.3 µM; on PCSK9 [4] (setting [9]) it was 24.2 ± 0.8 µM; in the experiment with His-EGF(A)-Fc it was not below 50 µM.

For `CC[C@H](C)[C@H](NC(=O)[C@H](CCCCNC(=N)N)NC(=O)[C@@H](NC(=O)[C@H](CC(C)C)NC(=O)[C@H](CC(N)=O)NC(=O)[C@H](Cc1c[nH]c2ccccc12)NC(=O)CNC(=O)[C@@H]1CCCN1C(=O)[C@H](Cc1ccc(O)cc1)NC(=O)[C@H](CO)NC(=O)[C@H](CCC(=O)O)NC(C)=O)C(C)C)C(=O)NCC(=O)N[C@@H](CC(C)C)C(=O)N[C@@H](CC(C)C)C(=O)N[C@@H](CCCNC(=N)N)C(N)=O` [Compound 231] (Ac-ESYPGWNLV[hArg]IGLLR-NH2), the IC50 against PCSK9 [1] was more than 50 µM; at PCSK9Δhelix [2] (setting [6]), 17 µM; on PCSK9Δhelix [2] (setting [7]), 1.49 ± 0.1 µM; on PCSK9 [4] (setting [8]), 1.6 µM; on PCSK9 [4] (setting [9]), 15.8 ± 0.1 µM; in the experiment on His-EGF(A)-Fc it was not below 50 µM.

Turning to `CC[C@H](C)[C@@H]1NC(=O)[C@H](CCCNC(=N)N)NC(=O)[C@H](CCC(N)=O)NC(=O)[C@H](CC(C)C)NC(=O)[C@H](CC(N)=O)NC(=O)[C@H](Cc2c[nH]c3ccccc23)NC(=O)[C@@H]2CCCN2C(=O)[C@H]([C@@H](C)CC)NC(=O)[C@H](Cc2ccccc2)NC(=O)[C@@H](NC(=O)CNC(=O)[C@@H](N)CO)CSSC[C@@H](C(N)=O)NC(=O)[C@H](CC(C)C)NC(=O)[C@H](CC(C)C)NC(=O)CNC1=O` [Compound K9gvpep1] (H-SGCFIPWNLQRIGLLC-NH2; disulfide 3-16), the “competition with binding of phage-displayed Pep2-8 to PCSK9” value on PCSK9 [5] is on record as “did not compete”.

`CC[C@H](C)[C@@H]1NC(=O)[C@H](CCCNC(=N)N)NC(=O)[C@H](CCC(N)=O)NC(=O)[C@H](CC(C)C)NC(=O)[C@H](CC(N)=O)NC(=O)[C@H](Cc2c[nH]c3ccccc23)NC(=O)[C@@H]2CCCN2C(=O)[C@H](CC(C)C)NC(=O)[C@H](CCCNC(=N)N)NC(=O)[C@@H](NC(=O)CNC(=O)[C@@H](N)CO)CSSC[C@@H](C(N)=O)NC(=O)[C@@H]2CCCN2C(=O)[C@H](CC(C)C)NC(=O)CNC1=O` [Compound K9gvpep4] (H-SGCRLPWNLQRIGLPC-NH2; disulfide 3-16): on PCSK9 [5], the “competition with binding of phage-displayed Pep2-8 to PCSK9” value is “did not compete”.
